What was measured:
[1] = Sodium perborate stabilization in wash liquors (bleaching of grape juice stained swatches); conditions: 5.2×10^-5 mol/l stabilizer, sodium perborate-monohydrate 0.8 g/l, 50° C., 15 minutes, pH 10.3; for ΔE (brightness of the swatches): Fe^III, Cu^II, Mn^II; for % Stain Removal: in duplicate
Protocol: The efficiency of the bleaching action of a laundry detergent containing the stabilizers of the invention was measured by washing white poly-cotton fabric swatches previously stained with grape juice. The test was carried out using the following detergent formulation: […]
Sodium Dodecyl Benzene Sulfonate
Grape juice stained, poly-cotton fabric swatches purchased from Scientific Services, Oakland, N.J., were washed in a Tergitometer at 50° C. for 15 minutes in a wash solution containing sodium perborate-monohydrate 0.8 g/l; 4.0 g/l of the zeolite-based detergent as described above; 100 ppm Hardness (3:1 Ca:Mg); 2 ppm Fe^III; 1 ppm Cu^II; and 1 ppm Mn^II (from AA standards); and 5.2×10^-5 mol/l stabilizer. The pH of the wash solution was 10.3. The swatches were then rinsed for 5 minutes in 25° C. water and air dried.
The efficiency of the bleaching action was determined by measuring the brightness (ΔE) of the swatches and the percentage of soil removed from the swatches.
ΔE was calculated in accordance with ASTM E 308-66(81) standards, using the following formula: [formula] wherein L=Lightness 0 black, 100 white a=Redness if +, Greenness if -, Gray is 0 b=Yellow if +, Blue if -, Gray is 0
Δ measurements are before and after washing
Percent stain removal was calculated in duplicate in accordance with ASTM D3050-75 standards, using the following formula: [formula] where D=reflectance by detergent head with green filter (brightness).

[2] = Perborate stabilization in the presence of Cu ions (peroxide remaining after hot storage, iodine/starch titration); conditions: pH 10.1
Protocol: (§1) The hydrogen peroxide responsible for the bleaching action in sodium perborate based laundry detergents is decomposed catalytically by transition metal ions such as Mn^II and Cu^II. This degradation can be prevented by complexing the metal ions.
(§2) The peroxide stabilizing effect of stabilizers in accordance with the invention was tested by measuring the peroxide present before and after storage in a hot aqueous solution which contains copper or manganese ions.
(§3) A solution of 0.2 g (2×10^-3 mols) sodium perborate monohydrate; 10.0 ml of hardness standard (3:1 CaCl2 :MgCl2, 1×10^-6 mols total); 3.0 ml of metal standard (5.4×10^-8 mol Mn^II or 4.7×10^-8 mols Cu^II); and 2.0 ml stabilizer solution (4.2×10^-7 mols stabilizer) was diluted to 100 ml with distilled water. The pH was adjusted to 10.1 and the solution was stirred at 70° C. for 20 minutes. Ten ml aliquots of the solution were tested after 10 minutes by first neutralizing the solution with sulfuric acid and then titrating with iodine and starch.
(§4) The percentage of peroxide remaining after storage was determined using a starch/iodine titration procedure.

[3] = Perborate stabilization in the presence of Mn ions (peroxide remaining after hot storage, iodine/starch titration); conditions: pH 10.1
Protocol: as §1, §2, §3, §4

[4] = conventional tests; cited from earlier work
[5] = 4.7×10^-8 mols Cu^II, 4.2×10^-7 mols stabilizer in 100 ml, 70° C.
[6] = 5.4×10^-8 mol Mn^II, 4.2×10^-7 mols stabilizer in 100 ml, 70° C.

SMILES | Stability in Presence of Cu^+2 Ions, % Remaining [2, 5] [%] | Stability in Presence of Mn^2 Ions, % Remaining [3, 6] [%] | Stability in Presence of Cu^+2 Ions, % Remaining [2] [%] | Stability in Presence of Mn^2 Ions, % Remaining [3] [%] | ΔE (brightness of the swatches) [1] | % Stain Removal [1] [%] | biodegradability [4]
O=C(O)CC(C(=O)O)N(CC(=O)O)CC(=O)O (stereo not drawn) [AspDA, Aspartic acidN,N-diacetic acid] | 28.6 | 25.6 |  |  | 93.9 | 83.7 | 
O=C(O)CNC(CC(=O)O)C(=O)O (stereo not drawn) [AspMA, Aspartic acidN-monoacetic acid] |  |  | 0.0 | 21.5 | 87.6 | 84.4 | 
O=C(O)CN(CCN(CC(=O)O)CC(=O)O)CC(=O)O [EDTA, Ethylenediaminetetraacetic acid, reference compound] | 82.8 | 87.5 |  |  | 86.2 | 79.7 | insufficiently biodegradable
O=C(O)CN(CC(=O)O)CC(O)CN(CC(=O)O)CC(=O)O [HPDTA, hydroxypropylenediaminetetraacetic acid] |  |  |  |  |  |  | insufficiently biodegradable
CC(CN(CC(=O)O)CC(=O)O)N(CC(=O)O)CC(=O)O (stereo not drawn) [PDTA, propylenediaminetetraacetic acid] |  |  |  |  |  |  | insufficiently biodegradable

More lines, main results first:

Stability in Presence of Cu^+2 Ions, % Remaining [2, 5] [%] | Stability in Presence of Mn^2 Ions, % Remaining [3, 6] [%] | Stability in Presence of Cu^+2 Ions, % Remaining [2] [%] | Stability in Presence of Mn^2 Ions, % Remaining [3] [%] | SMILES | ΔE (brightness of the swatches) [1] | % Stain Removal [1] [%] | biodegradability [4]
50.4 | 45.0 |  |  | O=C(O)CCN(CC(=O)O)CC(=O)O [BADA] | 98.0 | 83.3 | 
31.3 | 54.5 |  |  | O=C(O)CSC(CC(=O)O)C(=O)O (stereo not drawn) [CMMS, Carboxymethylmercaptosuccinic acid] | 102.3 | 84.5 | 
79.0 | 13.6 |  |  | O=C(O)CC(NC(CC(=O)O)C(=O)O)C(=O)O (stereo not drawn) [ISA, Iminodisuccinic acid] | 92.7 | 81.4 | 

— US5362412A, “Biodegradable bleach stabilizers for detergents” (priority 1991, dated 1994)
